Substitutions are numbered along the chain they refer to.
Tests used:
Test in all cases: Substrate kinetics, coupled assay
Assay type in all cases: biochemical
PfPNP His7Phe = target: T1, PfPNP His7Phe (Plasmodium falciparum, UniProt Q8I3X4, H7F); conditions: for Km / kcat: substrate = label
T1 construct: made in house; host or cells: Escherichia coli Top 10
T1 sequence (Q8I3X4 1-245 H7F): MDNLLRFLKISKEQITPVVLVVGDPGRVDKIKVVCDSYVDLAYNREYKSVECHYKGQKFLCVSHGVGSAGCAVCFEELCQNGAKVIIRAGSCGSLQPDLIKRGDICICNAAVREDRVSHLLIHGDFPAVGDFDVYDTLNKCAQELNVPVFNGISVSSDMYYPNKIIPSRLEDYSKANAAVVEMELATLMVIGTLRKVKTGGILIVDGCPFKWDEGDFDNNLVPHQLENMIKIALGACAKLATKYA
Description: (§1) Kinetic assays were completed in 50 mM KH2PO4 at pH 7.4 measuring phosphorylysis of inosine or MTI by PNP in a coupled reaction with 60 milliunits/ml xanthine oxidase to convert hypoxanthine to uric acid. Formation of uric acid was measured at 293 nm wavelength (E293 = 12.9 mM^−1 cm^−1), [20]. In cases where activity for MTI was low, increased protein concentration (10 µg/ml) was used to check enzyme function. Assays were performed with excess substrate in the presence of inhibitors. Inhibition studies measured both initial (Ki) and slow onset inhibition (Ki*) for inhibitors. The initial onset inhibition was analyzed by using the following equation: ν ο = (k cat×S)/(K m(1+I/Ki)+S), ν ο is the steady state rate, k cat catalytic rate, S is substrate concentration, Km is Michealis constant for inosine, I is inhibitor concentration, and Ki is the equilibrium dissociation constant.

PfPNP His7Ser = target: T2, PfPNP His7Ser (Plasmodium falciparum, UniProt Q8I3X4, H7S); conditions: for Km / kcat: substrate = label
T2 construct: made in house; host or cells: Escherichia coli Top 10
T2 sequence (Q8I3X4 1-245 H7S): T1 sequence (Q8I3X4 1-245 H7F) with F7S
Description: as §1

PfPNP Tyr160Ala = target: T3, PfPNP Tyr160Ala (Plasmodium falciparum, UniProt Q8I3X4, Y160A); conditions: for Km / kcat / reduced catalytic efficiency compared to wild-type PfPNP: substrate = label
T3 construct: made in house; host or cells: Escherichia coli Top 10
T3 sequence (Q8I3X4 1-245 Y160A): T1 sequence (Q8I3X4 1-245 H7F) with F7H, Y160A
Description: as §1

PfPNP Tyr160Phe = target: T4, PfPNP Tyr160Phe (Plasmodium falciparum, UniProt Q8I3X4, Y160F); conditions: for Km / kcat: substrate = label
T4 construct: made in house; host or cells: Escherichia coli Top 10
T4 sequence (Q8I3X4 1-245 Y160F): T1 sequence (Q8I3X4 1-245 H7F) with F7H, Y160F
Description: as §1

PfPNP Val73Ala = target: T5, PfPNP Val73Ala (Plasmodium falciparum, UniProt Q8I3X4, V73A); conditions: for Km / kcat: substrate = label
T5 construct: made in house; host or cells: Escherichia coli Top 10
T5 sequence (Q8I3X4 1-245 V73A): T1 sequence (Q8I3X4 1-245 H7F) with F7H, V73A
Description: as §1

PfPNP Val73Ile = target: T6, PfPNP Val73Ile (Plasmodium falciparum, UniProt Q8I3X4, V73I); conditions: for Km / kcat: substrate = label
T6 construct: made in house; host or cells: Escherichia coli Top 10
T6 sequence (Q8I3X4 1-245 V73I): T1 sequence (Q8I3X4 1-245 H7F) with F7H, V73I
Description: as §1

PfPNP Val73Ile/Tyr160Phe = target: T7, PfPNP Val73Ile/Tyr160Phe (Plasmodium falciparum, UniProt Q8I3X4, V73I/Y160F); conditions: for Km / kcat: substrate = label
T7 construct: made in house; host or cells: Escherichia coli Top 10
T7 sequence (Q8I3X4 1-245 V73I/Y160F): T1 sequence (Q8I3X4 1-245 H7F) with F7H, V73I, Y160F
Description: as §1

PfPNP Val73Ser = target: T8, PfPNP Val73Ser (Plasmodium falciparum, UniProt Q8I3X4, V73S); conditions: for Km / kcat: substrate = label
T8 construct: made in house; host or cells: Escherichia coli Top 10
T8 sequence (Q8I3X4 1-245 V73S): T1 sequence (Q8I3X4 1-245 H7F) with F7H, V73S
Description: as §1

Molecule | Km (PfPNP His7Phe) [µM] | kcat (PfPNP His7Phe) [s⁻¹] | Km (PfPNP His7Ser) [µM] | kcat (PfPNP His7Ser) [s⁻¹] | Km (PfPNP Tyr160Ala) [µM] | kcat (PfPNP Tyr160Ala) [s⁻¹] | reduced catalytic efficiency compared to wild-type PfPNP (PfPNP Tyr160Ala) [fold] | Km (PfPNP Tyr160Phe) [µM] | kcat (PfPNP Tyr160Phe) [s⁻¹] | Km (PfPNP Val73Ala) [µM] | kcat (PfPNP Val73Ala) [s⁻¹] | Km (PfPNP Val73Ile) [µM] | kcat (PfPNP Val73Ile) [s⁻¹] | Km (PfPNP Val73Ile/Tyr160Phe) [µM] | kcat (PfPNP Val73Ile/Tyr160Phe) [s⁻¹] | Km (PfPNP Val73Ser) [µM] | kcat (PfPNP Val73Ser) [s⁻¹] | other results
5′-methylthioinosine | 9.6 ± 8 | 0.21 ± 0.03 | 3.2 ± 2.7 | 0.88 ± 0.30 | 200 ± 59 | 0.09 ± 0.01 | ~1000 | 44 ± 5 | 0.30 ± 0.04 | 20 ± 10 | 1.9 ± 0.3 | 11 ± 8 | 0.81 ± 0.03 | 60 ± 33 | 0.28 ± 0.04 | 2100 | 0.02 ± 0 | –
OC[C@H]1O[C@@H](n2cnc3c(O)ncnc32)[C@H](O)[C@@H]1O [Inosine, inosine] | 353 ± 22 | 2.2 ± 0.7 | 14 ± 3 | 0.5 ± 0.3 | 5400 ± 120 | 0.1 ± 0.0 | ~1000 | 2.5 ± 1.2 | 0.21 ± 0.02 | 7 ± 4 | 1.1 ± 0.1 | 13 ± 2 | 1.9 ± 0.7 | 3.6 ± 1.3 | 0.59 ± 0.13 | 5 | 0.2 ± 0.0 | Ino/MTI kcat/Km Ratio (PfPNP His7Phe): 0.3; Ino/MTI kcat/Km Ratio (PfPNP His7Ser): 0.1; Ino/MTI kcat/Km Ratio (PfPNP Tyr160Ala): 0.5; Ino/MTI kcat/Km Ratio (PfPNP Tyr160Phe): 12; Ino/MTI kcat/Km Ratio (PfPNP Val73Ala): 1.6; Ino/MTI kcat/Km Ratio (PfPNP Val73Ile): 2.0; Ino/MTI kcat/Km Ratio (PfPNP Val73Ile/Tyr160Phe): 35; Ino/MTI kcat/Km Ratio (PfPNP Val73Ser): 4100
